What was measured:
[1] = Freeze fracture microscopy (FF-TEM) of the compositions; assay type: physicochemical; settings: freeze-fracture transmission electron microscope
Protocol: The compositions were subsequently examined using a freeze-fracture transmission electron microscope (FF-TEM). FF-TEM samples of each formulation were prepared in accordance with techniques described in chapter 5 of “Low Temperature Microscopy and Analysis” by Patrick Echlin (1992). The sample was mounted between thin metal sheets and rapidly cooled with liquid propane to −196° C. The sample was then transferred under liquid nitrogen to a pre-cooled cold stage of a Balzers BAF-301 high vacuum freeze-etch unit (Techno Trade International, Lichtenstein). The sample was fractured at low temperature and etched at −150° C. to remove a surface layer of water. The fracture faces were shadowed at an angle of 45° with platinum to create selective electron contrast. A thin layer of carbon was deposited over the entire fracture surface to create a continuous replica. The replicas were then examined using a JEOL 100CX2 electron microscope (Japanese Electronic Optical Laboratories, Japan).

[2] = in vivo; cited from earlier work
[3] = test system: osteoarthritic pain; settings: intra-articular injection; cited from earlier work

Compound	Structures seen by FF-TEM [1]	overall turnover rate t1/2 [2]	pain relief [3]
Hyaluronic acid	presence of string like structures	0.5 to a few	
CCCCCCCCCCCCCCCC(=O)OC[C@H](COP(=O)([O-])OCC[N+](C)(C)C)OC(=O)CCCCCCCCCCCCCCC [DPPC, 1,2-dipalmitoyl-sn-glycero-3-phosphocholine]			reduce osteoarthritic pain

From patent US20050123593A1, “Liposomal encapsulation of glycosaminoglycans for the treatment of arthritic joints” (priority 2001, published 2005)
